Bridge positions count the residues as written; N and C are the ends. Peptide text beside a SMILES is read from it.
Test: Calcitonin potency assay of the purified product (MRC units per mg)
Conditions: purified freeze-dried product of Example 1

SMILES: CC(C)C[C@H](NC(=O)[C@H](CCCCN)NC(=O)CNC(=O)[C@H](CC(C)C)NC(=O)[C@@H](NC(=O)[C@@H]1CSSC[C@H](N)C(=O)N[C@@H](CC(N)=O)C(=O)N[C@@H](CC(C)C)C(=O)N[C@@H](CO)C(=O)N[C@@H]([C@@H](C)O)C(=O)N1)C(C)C)C(=O)N[C@@H](CO)C(=O)N[C@@H](CCC(N)=O)C(=O)N[C@@H](CCC(=O)O)C(=O)N[C@@H](CC(C)C)C(=O)N[C@@H](Cc1c[nH]cn1)C(=O)N[C@@H](CCCCN)C(=O)N[C@@H](CC(C)C)C(=O)N[C@@H](CCC(N)=O)C(=O)N[C@H](C(=O)N[C@@H](Cc1ccc(O)cc1)C(=O)N1CCC[C@H]1C(=O)N[C@@H](CCCNC(=N)N)C(=O)N[C@H](C(=O)N[C@@H](CC(N)=O)C(=O)N[C@H](C(=O)NCC(=O)N[C@@H](CO)C(=O)NCC(=O)N[C@H](C(=O)N1CCC[C@H]1C(N)=O)[C@@H](C)O)[C@@H](C)O)[C@@H](C)O)[C@@H](C)O [des-Ser^2-SCT, des-ser^2 -salmon calcitonin] (H-CNLSTCVLGKLSQELHKLQTYPRTNTGSGTP-NH2; disulfide 1-6)
- biological potency (assayed MRC units per mg): 5600 MRC units per mg

Source: patent US4217268A, “Synthesis of peptides” (priority 1978, dated 1980)
